Measurements as given in ChEMBL document CHEMBL1201862, “PubChem BioAssay data set” (2004).
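Assay format: 96-well plates, 48-hour exposure. GI50: concentration for 50% inhibition of growth.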 Activity calls are given as the source filed them. Cut-off read from the data, not from the text of the source: active = GI50 up to about 1.1 µM and inactive = higher.

Assays:
Experiment in all cases: inhibition of tumour cell growth, NCI panel, 48 h
786-0 = test system: 786-0
A498 = test system: A498
A549 = test system: A549
ACHN = test system: ACHN
BT-549 = test system: BT-549
CAKI-1 = test system: CAKI-1
CCRF-CEM = test system: CCRF-CEM
DU-145 = test system: DU-145
EKVX = test system: EKVX
HCC 2998 = test system: HCC 2998
HCT-116 = test system: HCT-116
HCT-15 = test system: HCT-15
HL-60 = test system: HL-60
HOP-62 = test system: HOP-62
HOP-92 = test system: HOP-92
HT-29 = test system: HT-29
Hs-578T = test system: Hs-578T
IGROV-1 = test system: IGROV-1
K562 = test system: K562
KM12 = test system: KM12
LOX IMVI = test system: LOX IMVI
M14 = test system: M14
MCF7 = test system: MCF7
MDA-MB-231 = test system: MDA-MB-231
MDA-N = test system: MDA-N
MOLT-4 = test system: MOLT-4
Malme-3M = test system: Malme-3M
NCI-H226 = test system: NCI-H226
NCI-H23 = test system: NCI-H23
NCI-H460 = test system: NCI-H460
NCI-H522 = test system: NCI-H522
OVCAR-3 = test system: OVCAR-3
OVCAR-4 = test system: OVCAR-4
OVCAR-5 = test system: OVCAR-5
OVCAR-8 = test system: OVCAR-8
PC-3 = test system: PC-3
RPMI-8226 = test system: RPMI-8226
RXF 393 = test system: RXF 393
SF-268 = test system: SF-268
SF-295 = test system: SF-295
SF-539 = test system: SF-539
SK-MEL-28 = test system: SK-MEL-28
SK-MEL-2 = test system: SK-MEL-2
SK-MEL-5 = test system: SK-MEL-5
SN12C = test system: SN12C
SNB-19 = test system: SNB-19
SNB-75 = test system: SNB-75
SR = test system: SR
SW-620 = test system: SW-620
T47D = test system: T47D
TK-10 = test system: TK-10
U-251 = test system: U-251
UACC-257 = test system: UACC-257
UACC-62 = test system: UACC-62
UO-31 = test system: UO-31

Measured: GI50

CCCC(=O)N(C)/N=N/c1ccc(C(=O)OCC)cc1
inactive: 786-0 > 100 µM | A498 81.7 µM | A549 > 100 µM | ACHN > 100 µM | BT-549 > 100 µM | CAKI-1 > 100 µM | CCRF-CEM > 100 µM | DU-145 > 100 µM | EKVX 15.2 µM | HCC 2998 > 100 µM | HCT-116 > 100 µM | HL-60 > 100 µM | HOP-62 > 100 µM | HOP-92 > 100 µM | HT-29 > 100 µM | Hs-578T > 100 µM | IGROV-1 > 100 µM | K562 > 100 µM | KM12 > 100 µM | LOX IMVI > 100 µM | M14 > 100 µM | MCF7 > 100 µM | MDA-MB-231 > 100 µM | MDA-N > 100 µM | MOLT-4 > 100 µM | Malme-3M > 100 µM | NCI-H226 > 100 µM | NCI-H23 > 100 µM | NCI-H460 22.6 µM | NCI-H522 52 µM | OVCAR-3 > 100 µM | OVCAR-4 > 100 µM | OVCAR-5 > 100 µM | OVCAR-8 > 100 µM | PC-3 > 100 µM | RPMI-8226 > 100 µM | RXF 393 > 100 µM | SF-268 > 100 µM | SF-295 > 100 µM | SF-539 > 100 µM | SK-MEL-28 > 100 µM | SK-MEL-2 > 100 µM | SK-MEL-5 > 100 µM | SN12C > 100 µM | SNB-19 > 100 µM | SNB-75 37.9 µM | SR > 100 µM | SW-620 > 100 µM | T47D 63.4 µM | TK-10 > 100 µM | U-251 > 100 µM | UACC-257 > 100 µM | UACC-62 > 100 µM | UO-31 42.6 µM
> 100 µM: HCT-15
